Marks after values point to notes of the source that are not given here.
Key:
[1] = tested on: Puccinia recondita f sp. tritici; experiment: Test A: wheat leaf rust, preventive spray on wheat seedlings, visual disease rating; assay type: in vivo; settings: 100 = 100% disease control, 0 = no control
Description: General protocol for preparing test suspensions for Tests A-D: the test compounds were first dissolved in acetone in an amount equal to 3% of the final volume and then suspended at the desired concentration (in ppm) in acetone and purified water (50/50 mix by volume) containing 250 ppm of the surfactant Trem® 014 (polyhydric alcohol esters). The resulting test suspensions were then used in Tests A-D. The test suspension was sprayed to the point of run-off on wheat seedlings. The following day the seedlings were inoculated with a spore suspension of Puccinia recondita f sp. tritici (the causal agent of wheat leaf rust) and incubated in a saturated atmosphere at 20° C. for 24 h, and then moved to a growth chamber at 20° C. for 7 days, after which time visual disease ratings were made. In the Table, a rating of 100 indicates 100% disease control and a rating of 0 indicates no disease control (relative to the controls). A dash (−) indicates no test results. All results are for 250 ppm except where followed by an “*” which indicates 50 ppm, and where followed by an “**” which indicates 10 ppm

[2] = tested on: Septoria tritici; experiment: Test B: wheat leaf blotch, preventive spray on wheat seedlings, visual disease rating; assay type: in vivo; settings: 100 = 100% disease control, 0 = no control
Description: General protocol for preparing test suspensions for Tests A-D: the test compounds were first dissolved in acetone in an amount equal to 3% of the final volume and then suspended at the desired concentration (in ppm) in acetone and purified water (50/50 mix by volume) containing 250 ppm of the surfactant Trem® 014 (polyhydric alcohol esters). The resulting test suspensions were then used in Tests A-D. The test suspension was sprayed to the point of run-off on wheat seedlings. The following day the seedlings were inoculated with a spore suspension of Septoria tritici (the causal agent of wheat leaf blotch) and incubated in a saturated atmosphere at 24° C. for 48 h, and then moved to a growth chamber at 20° C. for 19 days, after which time visual disease ratings were made. In the Table, a rating of 100 indicates 100% disease control and a rating of 0 indicates no disease control (relative to the controls). A dash (−) indicates no test results. All results are for 250 ppm except where followed by an “*” which indicates 50 ppm, and where followed by an “**” which indicates 10 ppm

[3] = tested on: Blumeria graminis f sp. tritici; experiment: Test D: wheat powdery mildew, preventive spray on wheat seedlings, visual disease rating; assay type: in vivo; settings: 100 = 100% disease control, 0 = no control
Description: General protocol for preparing test suspensions for Tests A-D: the test compounds were first dissolved in acetone in an amount equal to 3% of the final volume and then suspended at the desired concentration (in ppm) in acetone and purified water (50/50 mix by volume) containing 250 ppm of the surfactant Trem® 014 (polyhydric alcohol esters). The resulting test suspensions were then used in Tests A-D. The test suspension was sprayed to the point of run-off on wheat seedlings. The following day the seedlings were inoculated with a spore dust of Blumeria graminis f sp. tritici, (also known as Erysiphe graminis f. sp. tritici, the causal agent of wheat powdery mildew) and incubated in a growth chamber at 20° C. for 8 days, after which time visual disease ratings were made. In the Table, a rating of 100 indicates 100% disease control and a rating of 0 indicates no disease control (relative to the controls). A dash (−) indicates no test results. All results are for 250 ppm except where followed by an “*” which indicates 50 ppm, and where followed by an “**” which indicates 10 ppm

[4] = tested on: Botrytis cinerea; experiment: Test C: tomato Botrytis, preventive spray on tomato seedlings, visual disease rating; assay type: in vivo; settings: 100 = 100% disease control, 0 = no control
Description: General protocol for preparing test suspensions for Tests A-D: the test compounds were first dissolved in acetone in an amount equal to 3% of the final volume and then suspended at the desired concentration (in ppm) in acetone and purified water (50/50 mix by volume) containing 250 ppm of the surfactant Trem® 014 (polyhydric alcohol esters). The resulting test suspensions were then used in Tests A-D. The test suspension was sprayed to the point of run-off on tomato seedlings. The following day the seedlings were inoculated with a spore suspension of Botrytis cinerea (the causal agent of tomato Botrytis) and incubated in a saturated atmosphere at 20° C. for 48 h, and then moved to a growth chamber at 24° C. for 3 days, after which time visual disease ratings were made. In the Table, a rating of 100 indicates 100% disease control and a rating of 0 indicates no disease control (relative to the controls). A dash (−) indicates no test results. All results are for 250 ppm except where followed by an “*” which indicates 50 ppm, and where followed by an “**” which indicates 10 ppm

[5] = Zymoseptoria tritici, 50 ppm (*)

SMILES: CCC(C)c1c(Nc2c(F)cc([N+](=O)[O-])cc2F)c(C)nn1C (centres unmarked) [Compound 16]
- Test A disease control rating ([1]; 50 ppm (*)): 0* %
- Test B disease control rating ([2]; 50 ppm (*)): 22* %
- Test D disease control rating ([3]; 50 ppm (*)): 0* %

SMILES: CC=C(C)c1c(C(O)c2ccc(F)cc2Cl)c(Br)nn1C (centres unmarked) [Compound 27]
- Test A disease control rating ([1]; 50 ppm (*)): 99* %
- Test C disease control rating ([4]; 50 ppm (*)): 58* %
- Test B disease control rating ([2]; 50 ppm (*)): 100* %
- Test D disease control rating ([3]; 250 ppm): 86%

SMILES: Cc1nn(C)c(C(C)C)c1C(O)c1ccc(F)cc1Cl (stereo not drawn) [Compound 1, α-(2-chloro-4-fluorophenyl)-1,3-dimethyl-5-(1-methylethyl)-1H-pyrazole-4-methanol]
- pest or weed control at 50 ppm ([1]; 50 ppm (*)): 98%
- melting point: 152 to 154 °C
- pest or weed control at 50 ppm ([4]; Botrytis cinerea, 50 ppm (*)): 33%
- pest or weed control at 50 ppm [2, 5]: 100%
- pest or weed control at 50 ppm ([3]; Blumeria graminis, 50 ppm (*)): 97%

SMILES: Cc1nn(C)c(CC(C)C)c1C(O)c1ccc(F)cc1Cl (stereo not drawn) [Compound 3, α-(2-chloro-4-fluorophenyl)-1,3-dimethyl-5-(2-methylpropyl)-1H-pyrazole-4-methanol]
- pest or weed control at 10 ppm ([1]; 10 ppm (**)): 89%
- melting point: 159 to 162 °C
- pest or weed control at 10 ppm ([4]; Botrytis cinerea, 10 ppm (**)): 0%
- pest or weed control at 10 ppm ([2]; Zymoseptoria tritici, 10 ppm (**)): 100%
- pest or weed control at 10 ppm ([3]; Blumeria graminis, 10 ppm (**)): 71%

SMILES: Cc1nn(C)c(C2CCCC2)c1C(O)c1ccc(F)cc1F (centres unmarked) [Compound 26]
- Test A disease control rating ([1]; 50 ppm (*)): 74* %
- Test C disease control rating ([4]; 50 ppm (*)): 26* %
- Test B disease control rating ([2]; 50 ppm (*)): 97* %
- Test D disease control rating ([3]; 50 ppm (*)): 90* %

SMILES: CCC(C)c1c(C(O)c2c(Cl)cccc2Cl)c(C)nn1C (stereo not drawn) [Compound 24, α-(2,6-dichlorophenyl)-1,3-dimethyl-5-(1-methylpropyl)-1H-pyrazole-4-methanol]
- pest or weed control at 50 ppm ([1]; 50 ppm (*)): 99%
- melting point: 175 to 178 °C
- pest or weed control at 50 ppm ([4]; Botrytis cinerea, 50 ppm (*)): 40%
- pest or weed control at 50 ppm [2, 5]: 69%
- pest or weed control at 50 ppm ([3]; Blumeria graminis, 50 ppm (*)): 84%

SMILES: CCC(C)c1c(Oc2ccc(F)cc2Cl)c(C)nn1C (centres unmarked) [Compound 7]
- Test A disease control rating ([1]; 250 ppm): 0%
- Test C disease control rating ([4]; 250 ppm): 0%
- Test B disease control rating ([2]; 250 ppm): 0%
- Test D disease control rating ([3]; 250 ppm): 0%

SMILES: CCC(C)c1c(Nc2c(F)cc(F)cc2F)c(C)nn1C (centres unmarked) [Compound 15]
- Test A disease control rating ([1]; 50 ppm (*)): 0* %
- Test B disease control rating ([2]; 50 ppm (*)): 1* %
- Test D disease control rating ([3]; 50 ppm (*)): 0* %

SMILES: Cc1nn(C)c(CC(C)C)c1C(O)c1ccc(F)cc1F (stereo not drawn) [Compound 14, α-(2,4-difluorophenyl)-1,3-dimethyl-5-(2-methylpropyl)-1H-pyrazole-4-methanol]
- pest or weed control at 50 ppm ([1]; 50 ppm (*)): 74%
- melting point: 129 to 133 °C
- pest or weed control at 50 ppm ([4]; Botrytis cinerea, 50 ppm (*)): 16%
- pest or weed control at 50 ppm [2, 5]: 99%
- pest or weed control at 50 ppm ([3]; Blumeria graminis, 50 ppm (*)): 98%

SMILES: Cc1nn(C)c(C2CCCCC2)c1C(O)c1ccc(F)cc1F (stereo not drawn) [Compound 11, 5-cyclohexyl-α-(2,4-difluorophenyl)-1,3-dimethyl-1H-pyrazole-4-methanol]
- pest or weed control at 250 ppm ([1]; 250 ppm): 99%
- melting point: 161 to 164 °C
- pest or weed control at 250 ppm ([4]; Botrytis cinerea, 250 ppm): 99%
- pest or weed control at 250 ppm ([2]; Zymoseptoria tritici, 250 ppm): 100%
- pest or weed control at 250 ppm ([3]; Blumeria graminis, 250 ppm): 97%

SMILES: Cc1nn(C)c(C2CCCC2)c1C(O)c1ccc(F)cc1Cl (centres unmarked) [Compound 19]
- Test A disease control rating ([1]; 50 ppm (*)): 89* %
- Test C disease control rating ([4]; 50 ppm (*)): 0* %
- Test B disease control rating ([2]; 50 ppm (*)): 100* %
- Test D disease control rating ([3]; 50 ppm (*)): 89* %

SMILES: Cc1nn(C)c(C(C)C)c1C(O)c1ccc(F)cc1F (centres unmarked) [Compound 2]
- Test A disease control rating ([1]; 50 ppm (*)): 57* %
- Test C disease control rating ([4]; 50 ppm (*)): 0* %
- Test B disease control rating ([2]; 50 ppm (*)): 99* %
- Test D disease control rating ([3]; 50 ppm (*)): 99* %

SMILES: CCC(C)c1c(Nc2ccc(F)c(F)c2)c(C)nn1C (centres unmarked) [Compound 20]
- Test A disease control rating ([1]; 50 ppm (*)): 0* %
- Test B disease control rating ([2]; 50 ppm (*)): 0* %
- Test D disease control rating ([3]; 50 ppm (*)): 26* %

SMILES: Cn1nc(Br)c(C(O)c2ccc(F)cc2Cl)c1C1=CCCCC1 (centres unmarked) [Compound 28]
- Test A disease control rating ([1]; 50 ppm (*)): 80* %
- Test C disease control rating ([4]; 50 ppm (*)): 0* %
- Test B disease control rating ([2]; 50 ppm (*)): 87* %
- Test D disease control rating ([3]; 50 ppm (*)): 64* %

SMILES: CCC(C)c1c(C(O)c2c(F)cccc2F)c(C)nn1C (centres unmarked) [Compound 25]
- Test A disease control rating ([1]; 50 ppm (*)): 74* %
- Test C disease control rating ([4]; 50 ppm (*)): 17* %
- Test B disease control rating ([2]; 50 ppm (*)): 63* %
- Test D disease control rating ([3]; 50 ppm (*)): 86* %

SMILES: CCC(C)c1c(Nc2ccc(F)cc2Cl)c(C)nn1C (centres unmarked) [Compound 18]
- Test A disease control rating ([1]; 50 ppm (*)): 0* %
- Test B disease control rating ([2]; 50 ppm (*)): 0* %
- Test D disease control rating ([3]; 50 ppm (*)): 0* %

SMILES: Cc1nn(C)c(C2=CCCCC2)c1Oc1ccc(F)cc1Cl [Compound 13, 4-(2-chloro-4-fluorophenoxy)-5-(1-cyclohexen-1-yl)-1,3-dimethyl-1H-pyrazole]
- pest or weed control at 250 ppm ([1]; 250 ppm): 9%
- pest or weed control at 250 ppm ([4]; Botrytis cinerea, 250 ppm): 0%
- pest or weed control at 250 ppm ([2]; Zymoseptoria tritici, 250 ppm): 0%
- pest or weed control at 250 ppm ([3]; Blumeria graminis, 250 ppm): 67%

SMILES: C=C(C)Cc1c(C(O)c2ccc(F)cc2Cl)c(C)nn1C (centres unmarked) [Compound 5]
- Test A disease control rating ([1]; 50 ppm (*)): 68* %
- Test C disease control rating ([4]; 50 ppm (*)): 0* %
- Test B disease control rating ([2]; 50 ppm (*)): 99* %
- Test D disease control rating ([3]; 50 ppm (*)): 76* %

SMILES: CCC(C)c1c(Nc2c(F)cc(C#N)cc2F)c(C)nn1C (centres unmarked) [Compound 17]
- Test A disease control rating ([1]; 50 ppm (*)): 0* %
- Test B disease control rating ([2]; 50 ppm (*)): 35* %
- Test D disease control rating ([3]; 50 ppm (*)): 69* %

SMILES: CC=C(C)c1c(Oc2ccc(F)cc2Cl)c(C)nn1C [Compound 4]
- Test A disease control rating ([1]; 250 ppm): 0%
- Test C disease control rating ([4]; 250 ppm): 39%
- Test B disease control rating ([2]; 250 ppm): 0%
- Test D disease control rating ([3]; 250 ppm): 56%

Source: US20170037014A1, “FUNGICIDAL PYRAZOLES” (E. I. DU PONT DE NEMOURS AND COMPANY, priority 2014, published 2017)
